In paper PMC7356692, “Structural Basis of Specific Glucoimidazole and Mannoimidazole Binding by Os3BGlu7” (Biomolecules, 2020):

Molecular target: T1, Os3BGlu7 (Oryza sativa, UniProt Q75I93)
T1 construct: gene BGLU7; recombinant from E. coli Origami (DE3); IMAC, fusion tag removed with enterokinase; mature enzyme; two molecules per asymmetric unit
Experiment: X-ray crystallography, […] Å
Format: binding
Conditions: crystal soaked in 10 mM mannoimidazole preparation (GIm as contaminant or isomerization product); -1 subsite; pH 6.7

T1 sequence (Q75I93 29-504): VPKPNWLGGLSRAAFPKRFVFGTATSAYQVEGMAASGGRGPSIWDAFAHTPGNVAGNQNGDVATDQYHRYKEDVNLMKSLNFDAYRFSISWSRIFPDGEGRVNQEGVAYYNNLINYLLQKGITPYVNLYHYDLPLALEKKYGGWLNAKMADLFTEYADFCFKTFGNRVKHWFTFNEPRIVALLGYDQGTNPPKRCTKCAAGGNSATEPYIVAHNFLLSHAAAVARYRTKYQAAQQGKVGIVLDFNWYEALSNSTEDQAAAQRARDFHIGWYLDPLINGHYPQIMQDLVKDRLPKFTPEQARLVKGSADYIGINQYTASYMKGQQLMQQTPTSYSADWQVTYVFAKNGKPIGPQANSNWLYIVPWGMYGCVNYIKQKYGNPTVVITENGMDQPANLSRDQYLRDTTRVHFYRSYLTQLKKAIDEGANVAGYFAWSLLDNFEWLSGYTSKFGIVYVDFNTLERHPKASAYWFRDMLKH

OC[C@@H]1[C@@H](O)[C@H](O)[C@@H](O)c2nccn21 [glucoimidazole]
X-ray crystallography, 2.3 Å: electron densities of ligand in the active sites of both protein molecules in the asymmetric unit
